Assay results published in paper PMC12469503, “Exploring the Antimicrobial and Antiviral Properties of Cryptic Peptides from Human Fibrinogen” (International Journal of Molecular Sciences, 2025).
Where two headings read alike, the source gives them in different places. Ends that are not written are not given here.

Columns and labels:
[1] = test system: Pseudomonas aeruginosa PAO1; conditions: Table 2, Pseudomonas aeruginosa PAO1
[2] = test system: Pseudomonas aeruginosa PAO1; conditions: for MIC: Table 2, Pseudomonas aeruginosa PAO1
[3] = test system: Staphylococcus aureus ATCC 6538P; conditions: Table 2; Staphylococcus aureus ATCC 6538P
[4] = test system: Acinetobacter baumanii ATCC 17878
[5] = test system: Salmonella typhimurium ATCC 14028; test: MIC, broth microdilution; type: cell-based; conditions: Table 1; for MIC S. typ.: broth microdilution, Nutrient Broth 0.5×, overnight 37 °C, minimum of three independent experiments
Method: MIC values were determined on Gram-positive and Gram-negative bacteria by the broth microdilution method for antimicrobial peptides previously described [33, 89] with minor modifications.
Bacterial strains were grown in Luria-Bertani (LB) medium overnight at 37 °C and then diluted in Nutrient Broth at a final concentration of ~5 × 10^5 CFU/mL per well. Twofold serial dilutions of peptides were carried out in the test wells to obtain concentrations ranging from 50 μM to 0.05 μM. Plates were incubated overnight at 37 °C.
MIC value was defined as the lowest concentration at which growth was inhibited. Three independent experiments were performed for each MIC value.

[6] = test system: Salmonella enteriditis 706 RIVM
[7] = test system: Enterococcus faecalis ATCC 29212
[8] = test system: Escherichia coli ATCC 25922
[9] = test system: Staphylococcus aureus ATCC 6538P; conditions: ATCC 6538
[10] = test system: Klebsiella pneumonia ATCC 700603; conditions: for MIC K. pne.: ATCC 700603
[11] = test system: Pseudomonas aeruginosa RP73 (clinical isolate)
[12] = test system: Pseudomonas aeruginosa PA14
[13] = Table 1, broth microdilution, Nutrient Broth 0.5×, overnight 37 °C, minimum of three independent experiments
[14] = Table 1, control antibiotic, twofold dilutions from 64 µg/mL

## CC[C@H](C)[C@H](NC(=O)[C@H](CCCCN)NC(=O)[C@H](CCC(=O)O)NC(=O)[C@H](CCCCN)NC(=O)[C@H](CO)NC(=O)[C@H](CCCCN)NC(=O)[C@H](CCCNC(=N)N)NC(=O)[C@H](Cc1ccccc1)NC(=O)[C@H](Cc1ccccc1)NC(=O)[C@H](CC(=O)O)NC(=O)CNC(=O)[C@H](CC(C)C)NC(=O)[C@@H](N)CC(C)C)C(=O)NCC(=O)N[C@@H](CCCCN)C(=O)N[C@@H](CCC(=O)O)C(=O)N[C@@H](Cc1ccccc1)C(=O)N[C@@H](CCCCN)C(=O)N[C@@H](CCCNC(=N)N)C(=O)N[C@H](C(=O)N[C@H](C(=O)N[C@@H](CCC(N)=O)C(=O)N[C@@H](CCCNC(=N)N)C(=O)N[C@H](C(=O)N[C@@H](CCCCN)C(=O)N[C@@H](CC(=O)O)C(=O)N[C@@H](Cc1ccccc1)C(=O)N[C@@H](CC(C)C)C(=O)N[C@@H](CCCNC(=N)N)C(=O)N[C@@H](CC(N)=O)C(=O)N[C@@H](CC(C)C)C(=O)N[C@H](C(=O)N1CCC[C@H]1C(=O)N[C@@H](CCCNC(=N)N)C(=O)N[C@H](C(=O)N[C@@H](CCC(=O)O)C(=O)N[C@@H](CO)C(=O)O)[C@@H](C)O)C(C)C)[C@@H](C)CC)C(C)C)[C@@H](C)CC [LL37, reference compound]
[1]; […], subculture on LB agar
  MBC: 1.56 µM
[2]; minimum of three independent experiments
  MIC: 1.56 µM

## NC[C@H]1O[C@H](O[C@H]2[C@H](O)[C@@H](O[C@H]3O[C@H](CO)[C@@H](O)[C@H](N)[C@H]3O)[C@H](N)C[C@@H]2N)[C@H](N)C[C@@H]1O [Tobramycin]
[1]
  MBC/MIC: 2
[3]
  MBC/MIC: 2

## Colistin [reference compound]
[1]
  MBC/MIC: 1
[1]; antibiotics
  MBC: 0.5 µg/mL
[2]; antibiotics
  MIC: 0.5 µg/mL

## GVVWMNWKGSWYSMRKMSMKIRPFFPQQ [FIBβ-GVV28]
[4]; ATCC 17878
  MIC A. bau.: 6.25 µM
[5]
  MIC S. typ.: 12.5 µM
[2]
  MIC PAO1: 6.25 µM
[6]; [13]
  MIC S. ent.: 12.5 µM
[7]; ATCC 29212
  MIC E. fae.: 6.25 µM
[8]; ATCC 25922
  MIC E. coli: 6.25 µM
[9]
  MIC S. aur.: 3.12 µM
[10]
  MIC K. pne.: 25 µM
[11]; RP73 (clinical isolate)
  MIC RP73: 6.25 µM
[12]; PA14
  MIC PA14: 6.25 µM

## GVVWVSFRGADYSLRAVRMKIRPLVTQ [FIBα-GVV27]
[4]; [13]
  MIC A. bau.: 6.25 µM
[5]
  MIC S. typ.: 6.25 µM
[2]
  MIC PAO1: 6.25 µM
[6]
  MIC S. ent.: 12.5 µM
[7]; [13]
  MIC E. fae.: 6.25 µM
[8]; ATCC 25922
  MIC E. coli: 12.5 µM
[9]
  MIC S. aur.: 6.25 µM
[10]
  MIC K. pne.: 25 µM
[11]; RP73 (clinical isolate)
  MIC RP73: 3.12 µM
[12]; [13]
  MIC PA14: 6.25 µM

## NWKGSWYSMRKMSMKIRPFFPQQ [FIBβ-NWK23]
[4]; ATCC 17878
  MIC A. bau.: 6.25 µM
[5]
  MIC S. typ.: 12.5 µM
[2]
  MIC PAO1: 6.25 µM
[6]; [13]
  MIC S. ent.: 12.5 µM
[7]; ATCC 29212
  MIC E. fae.: 6.25 µM
[8]; ATCC 25922
  MIC E. coli: 6.25 µM
[9]
  MIC S. aur.: 3.12 µM
[10]
  MIC K. pne.: 25 µM
[11]; RP73 (clinical isolate)
  MIC RP73: 6.25 µM
[12]; PA14
  MIC PA14: 3.12 µM

## Polymyxin B [reference compound]
[4]; [14]
  MIC A. bau. (antibiotics): 0.5 µg/mL
[5]; control antibiotic, twofold dilutions from 64 µg/mL
  MIC S. typ. (antibiotics): 0.12 µg/mL
[2]; [14]
  MIC PAO1 (antibiotics): 0.25 µg/mL
[6]; [14]
  MIC S. ent. (antibiotics): 0.5 µg/mL
[8]; [14]
  MIC E. coli (antibiotics): 0.5 µg/mL
[10]; [14]
  MIC K. pne. (antibiotics): 0.5 µg/mL
[11]; [14]
  MIC RP73 (antibiotics): 0.12 µg/mL
[12]; [14]
  MIC PA14 (antibiotics): 0.25 µg/mL

## SFRGADYSLRAVRMKIRPLVTQ [FIBα-SFR22]
[4]; ATCC 17878
  MIC A. bau.: 25 µM
[5]
  MIC S. typ.: 50 µM
[2]
  MIC PAO1: 12.5 µM
[6]
  MIC S. ent.: 50 µM
[7]; ATCC 29212
  MIC E. fae.: 6.25 µM
[8]; ATCC 25922
  MIC E. coli: 25 µM
[9]
  MIC S. aur.: 12.5 µM
[10]
  MIC K. pne.: >50 µM
[11]; RP73 (clinical isolate)
  MIC RP73: 12.5 µM
[12]; PA14
  MIC PA14: 12.5 µM

## TWKTRWYSMKKTTMKIIPFNRLTIG [FIBγ-TWK25]
[4]; [13]
  MIC A. bau.: 3.12 µM
[5]
  MIC S. typ.: 3.12 µM
[2]
  MIC PAO1: 3.12 µM
[6]
  MIC S. ent.: 6.25 µM
[7]; ATCC 29212
  MIC E. fae.: 6.25 µM
[8]; Table 1, broth microdilution, Nutrient Broth 0.5×, ~5 × 10^5 CFU/mL, overnight 37 °C, minimum of three independent experiments
  MIC E. coli: 3.12 µM
[9]
  MIC S. aur.: 1.56 µM
[10]
  MIC K. pne.: 6.25 µM
[11]; [13]
  MIC RP73: 3.12 µM
[12]; [13]
  MIC PA14: 3.12 µM
